Assay results published in patent publication US7202196B2, “Selective herbicide comprising a tetrazolinone derivative” (Bayer Cropscience AG, priority 2001, dated 2007).

What was measured:
Format in all cases: in vivo
[1] = system: Aeschynomene rudis; test: Example A: test in sown rice (Brazil), herbicidal effect; settings: fentrazamide 250 EC 400 g a.i./ha; spray at 1-2-leaf stage of the rice, 10 days after sowing; scored 3 weeks after application; outdoor test Brazil 1999
Text: (§1) To prepare a spray preparation, the active compound preparations are mixed with water. The concentration is adjusted so that the application rate corresponds to 200 l of water/ha.
(§2) Rice seeds are sown in test plots (2 m×5 m) in rice paddies. 10 days after sowing (when the rice has reached the 1-2-leaf stage), the spray preparation is applied to the test areas (using a hand-operated sprayer). 1 month after the treatment, the soil is flooded to a water depth of 5 cm; the standing water levels are kept constant.
(§3) 3 weeks after the active compound application, the degree of damage to the rice plants and the herbicidal effect on the emerged weeds of the species Aeschynomene rudis is scored visually in percent in comparison to an untreated control.
(§4) The figures denote: • 0%=no action/damage (like untreated control) • 100%=total destruction

[2] = system: Paddy rice (Oryza sp.); test: Example A: test in sown rice (Brazil), damage to rice; settings: fentrazamide 250 EC 400 g a.i./ha; spray at 1-2-leaf stage of the rice, 10 days after sowing; scored 3 weeks after application; outdoor test Brazil 1999
Text: as §1, §2, §3, §4

[3] = system: Brachiaria plantaginea; test: Example B: test in sown rice (Brazil), herbicidal effect; settings: fentrazamide 250 EC 300 g a.i./ha; spray at BBCH 23 stage of the rice, 29 days after sowing; scored 2 weeks after application; outdoor test Brazil 1999
Text: as §1
(§5) Rice seeds are sown in test plots (2 m×5 m) in rice paddies. 29 days after sowing (during the BBCH 23 development stage of the rice; begin of stocking), the spray preparation is applied to the test areas (using a hand-operated sprayer). A few days after the treatment, the soil is flooded to a water depth of 5 cm; the standing water levels are kept constant.
(§6) 2 weeks after the active compound application, the degree of damage to the rice plants and the herbicidal effect on the emerged weeds Echinochloa crus-galli and Brachiaria plantaginea is scored visually in percent in comparison to an untreated control.
as §4

[4] = system: Echinochloa crus-galli; test: as above; settings: fentrazamide 250 EC 300 g a.i./ha; spray at BBCH 23 stage of the rice, 29 days after sowing; scored 2 weeks after application; outdoor test Brazil 1999
Text: as §1, §5, §6, §4

[5] = system: Paddy rice (Oryza sp.); test: Example B: test in sown rice (Brazil), damage to rice; settings: fentrazamide 250 EC 300 g a.i./ha; spray at BBCH 23 stage of the rice, 29 days after sowing; scored 2 weeks after application; outdoor test Brazil 1999
Text: as §1, §5, §6, §4

[6] = system: Brachiaria plantaginea; test: Example C: test in sown rice (Brazil), herbicidal effect; settings: fentrazamide 250 EC 300 g a.i./ha; spray at BBCH 23 stage of the rice, 29 days after sowing; scored 2 weeks after application; outdoor test Brazil 1999
Text: as §1, §5, §6, §4

[7] = system: Echinochloa crus-galli; test: as above; settings: fentrazamide 250 EC 300 g a.i./ha; spray at BBCH 23 stage of the rice, 29 days after sowing; scored 2 weeks after application; outdoor test Brazil 1999
Text: as §1, §5, §6, §4

[8] = system: Paddy rice (Oryza sp.); test: Example C: test in sown rice (Brazil), damage to rice; settings: fentrazamide 250 EC 300 g a.i./ha; spray at BBCH 23 stage of the rice, 29 days after sowing; scored 2 weeks after application; outdoor test Brazil 1999
Text: as §1, §5, §6, §4

[9] = system: Brachiaria plantaginea; test: Example D: test in sown rice (Brazil), herbicidal effect; settings: fentrazamide 250 EC 300 g a.i./ha; spray at BBCH 23 stage of the rice, 29 days after sowing; scored 2 weeks after application; outdoor test Brazil 1999
Text: as §1, §5, §6, §4

[10] = system: Echinochloa crus-galli; test: as above; settings: fentrazamide 250 EC 300 g a.i./ha; spray at BBCH 23 stage of the rice, 29 days after sowing; scored 2 weeks after application; outdoor test Brazil 1999
Text: as §1, §5, §6, §4

[11] = system: Paddy rice (Oryza sp.); test: Example D: test in sown rice (Brazil), damage to rice; settings: fentrazamide 250 EC 300 g a.i./ha; spray at BBCH 23 stage of the rice, 29 days after sowing; scored 2 weeks after application; outdoor test Brazil 1999
Text: as §1, §5, §6, §4

[12] = system: Brachiaria plantaginea; test: Example E: test in sown rice (Brazil), herbicidal effect; settings: fentrazamide 250 EC 300 g a.i./ha; spray at BBCH 23 stage of the rice, 29 days after sowing; scored 2 weeks after application; outdoor test Brazil 1999
Text: as §1, §5, §6, §4

[13] = system: Echinochloa crus-galli; test: as above; settings: fentrazamide 250 EC 300 g a.i./ha; spray at BBCH 23 stage of the rice, 29 days after sowing; scored 2 weeks after application; outdoor test Brazil 1999
Text: as §1, §5, §6, §4

[14] = system: Paddy rice (Oryza sp.); test: Example E: test in sown rice (Brazil), damage to rice; settings: fentrazamide 250 EC 300 g a.i./ha; spray at BBCH 23 stage of the rice, 29 days after sowing; scored 2 weeks after application; outdoor test Brazil 1999
Text: as §1, §5, §6, §4

[15] = system: Acanthospermum hispidum; test: Example F: test in sown rice (Brazil), herbicidal effect; settings: fentrazamide 250 EC 300 g a.i./ha; spray at BBCH 12 stage of the rice (2-leaf-stage), 18 days after sowing; scored 3 weeks after application; outdoor test Brazil 1999
Text: as §1
(§7) Rice seeds are sown in test plots (2 m×5 m) in rice paddies. 18 days after sowing (during the BBCH 12 development stage of the rice; corresponds to the 2-leaf-stage), the spray preparation is applied to the test areas (using a hand-operated sprayer).
(§8) 3 weeks after the active compound application, the degree of damage to the rice plants and the herbicidal effect on the emerged weeds Acanthospermum hispidum, Commelina benghalensis, Digitaria sanguinalis and Eleusine indica is scored visually in percent in comparison to an untreated control.
as §4

[16] = system: Commelina benghalensis; test: as above; settings: fentrazamide 250 EC 300 g a.i./ha; spray at BBCH 12 stage of the rice (2-leaf-stage), 18 days after sowing; scored 3 weeks after application; outdoor test Brazil 1999
Text: as §1, §7, §8, §4

[17] = system: Digitaria sanguinalis; test: as above; settings: fentrazamide 250 EC 300 g a.i./ha; spray at BBCH 12 stage of the rice (2-leaf-stage), 18 days after sowing; scored 3 weeks after application; outdoor test Brazil 1999
Text: as §1, §7, §8, §4

[18] = system: Eleusine indica; test: as above; settings: fentrazamide 250 EC 300 g a.i./ha; spray at BBCH 12 stage of the rice (2-leaf-stage), 18 days after sowing; scored 3 weeks after application; outdoor test Brazil 1999
Text: as §1, §7, §8, §4

[19] = system: Mountain rice (Oryza sp.); test: Example F: test in sown rice (Brazil), damage to rice; settings: fentrazamide 250 EC 300 g a.i./ha; spray at BBCH 12 stage of the rice (2-leaf-stage), 18 days after sowing; scored 3 weeks after application; outdoor test Brazil 1999
Text: as §1, §7, §8, §4

[20] = system: Echinochloa crus-galli; test: Example G: test in sown rice (Philippines), herbicidal effect; settings: fentrazamide 50 WP 135 g a.i./ha; spray 11 days after sowing (4-leaf-stage); scored 8 weeks after application; outdoor test Philippines 1999
Text: as §1
(§9) Rice seeds are sown in test plots (2.5 m×2.5 m) in rice paddies. 11 days after sowing (4-leaf-stage of the rice), the spray preparation is applied to the test areas (using a hand-operated sprayer). 1 day after the treatment, the soil is flooded to a water depth of 5 cm; the standing water levels are kept constant.
(§10) 8 weeks after the active compound application, the degree of damage to the rice plants and the herbicidal effect on the emerged weeds of the species Echinochloa crus-galli is scored visually in percent in comparison to an untreated control.
as §4

[21] = system: Paddy rice (Oryza sp.); test: Example G: test in sown rice (Philippines), damage to rice; settings: fentrazamide 50 WP 135 g a.i./ha; spray 11 days after sowing (4-leaf-stage); scored 8 weeks after application; outdoor test Philippines 1999
Text: as §1, §9, §10, §4

[22] = system: Echinochloa crus-galli; test: Example H: test in sown rice (Thailand), herbicidal effect; settings: fentrazamide 50 WP 135 g a.i./ha; spray 7 days after sowing (2-leaf-stage); scored 8 weeks after application; outdoor test Thailand 1999
Text: as §1
(§11) Rice seeds are sown in test plots (2.5 m×2.5 m) in rice paddies. 7 days after sowing (2-leaf-stage of the rice), the spray preparation is applied to the test areas (using a hand-operated sprayer). 2 days after the treatment, the soil is flooded to a water depth of 5 cm; the standing water levels are kept constant.
(§12) 8 weeks after the active compound application, the degree of damage to the rice plants and the herbicidal effect on the emerged weeds Echinochloa crus-galli and Leptochloa chinensis is scored visually in percent in comparison to an untreated control.
as §4

[23] = system: Leptochloa chinensis; test: as above; settings: fentrazamide 50 WP 135 g a.i./ha; spray 7 days after sowing (2-leaf-stage); scored 8 weeks after application; outdoor test Thailand 1999
Text: as §1, §11, §12, §4

[24] = system: Paddy rice (Oryza sp.); test: Example H: test in sown rice (Thailand), damage to rice; settings: fentrazamide 50 WP 135 g a.i./ha; spray 7 days after sowing (2-leaf-stage); scored 8 weeks after application; outdoor test Thailand 1999
Text: as §1, §11, §12, §4

[25] = system: Echinochloa crus-galli; test: Example I: test in sown rice (Thailand), herbicidal effect; settings: fentrazamide 50 WP 135 g a.i./ha; spray 7 days after sowing (2-leaf-stage); scored 3 weeks after application; outdoor test Thailand 1999
Text: as §1, §11
(§13) 3 weeks after the active compound application, the degree of damage to the rice plants and the herbicidal effect on the emerged weeds Echinochloa crus-galli is scored visually in percent in comparison to an untreated control.
as §4

[26] = system: Paddy rice (Oryza sp.); test: Example I: test in sown rice (Thailand), damage to rice; settings: fentrazamide 50 WP 135 g a.i./ha; spray 7 days after sowing (2-leaf-stage); scored 3 weeks after application; outdoor test Thailand 1999
Text: as §1, §11, §13, §4

Structure (SMILES): CCN(C(=O)n1nnn(-c2ccccc2Cl)c1=O)C1CCCCC1 [(A), 4-(2-chlorophenyl)-N-cyclohexyl-N-ethyl-4,5-dihydro-5-oxo-1H-tetrazole-1-carboxamide]
- Damage or action in % Aeschynomene rudis found [1]: 30%
- Damage or action in % Paddy rice (Oryza sp.) found [2]: 0%
- Damage or action in % Brachiaria plantaginea found [3]: 10%
- Damage or action in % Echinochloa crus-galli found [4]: 35%
- Damage or action in % Paddy rice (Oryza sp.) found [5]: 0%
- Damage or action in % Brachiaria plantaginea found [6]: 10%
- Damage or action in % Echinochloa crus-galli found [7]: 35%
- Damage or action in % Paddy rice (Oryza sp.) found [8]: 0%
- Damage or action in % Brachiaria plantaginea found [9]: 10%
- Damage or action in % Echinochloa crus-galli found [10]: 35%
- Damage or action in % Paddy rice (Oryza sp.) found [11]: 0%
- Damage or action in % Brachiaria plantaginea found [12]: 10%
- Damage or action in % Echinochloa crus-galli found [13]: 35%
- Damage or action in % Paddy rice (Oryza sp.) found [14]: 0%
- Damage or action in % Acantho-spermum hispidum found [15]: 50%
- Damage or action in % Commelina Bengha-lensis found [16]: 50%
- Damage or action in % Digitaria Sanguina-lis found [17]: 50%
- Damage or action in % Eleusine indica found [18]: 50%
- Damage or action in % Mountain rice (Oryza sp.) found [19]: 0%
- Damage or action in % Echinochloa crus-galli found [20]: 78%
- Damage or action in % Paddy rice (Oryza sp.) found [21]: 0%
- Damage or action in % Echinochloa crus-galli found [22]: 47%
- Damage or action in % Leptochloa chinensis found [23]: 38%
- Damage or action in % Paddy rice (Oryza sp.) found [24]: 3%
- Damage or action in % Echinochloa crus-galli found [25]: 58%
- Damage or action in % Paddy rice (Oryza sp.) found [26]: 2%
